# Laboratory results: article PMC4364341, “NBD delivery improves the disease phenotype of the golden retriever model of Duchenne muscular dystrophy” (Skeletal Muscle, 2014)
# What was measured:
# GRMD dogs [1] = assay: Joint and pelvic angles, GRMD dogs; assay type: in vivo, dog; conditions: n = 6
# Text: We previously reported that 6-month-old GRMD dogs have abnormally acute (contracted) TTJ angles while positioned in dorsal recumbence for force measurements. Other investigators have subsequently described methods to measure joint angles at maximal flexion and extension, with associated range of motion, in wild type dogs. The method of Jaegger et al.[29] is now utilized to measure pelvic limb tibiotarsal (hock, ankle), stifle (knee), and coxofemoral (hip) joint angles for ongoing natural history and preclinical trials in our laboratory. In each case, dogs were anesthetized (above) and positioned in lateral recumbence. Angles at rest, maximal flexion, and maximal extension were measured. To objectively characterize the cranioventral shift of the pelvis typically seen in GRMD dogs, we also measured the pelvic angle formed by two lines extending cranially from the tuber ischium, one drawn parallel to the lumbar spine and the other extending to the midpoint of the tuber coxae.
# GRMD dogs [2] = assay: MRI of proximal pelvic limb muscles, GRMD dogs; assay type: in vivo, dog; parameters: MRI T2 mapping value: unit not given here; conditions: 6 months, NBD 10 mg/kg IV 3x weekly for 4 months, n = 6
# Text: Studies were done on a Siemens 3 T Allegra Head-Only MRI scanner with a circular polarization (CP) head coil or Siemens 3 T Tim Trio Whole-Body MRI scanner with a 32-channel body coil at the UNC-CH Biomedical Research Imaging Center (BRIC). Dogs were anesthetized (above), placed on an MRI gantry in the sternal (prone) position with the pelvic limbs extended, and positioned in the coil centered at the midpoint of the femur. The proximal pelvic limbs from the coxofemoral joint to the stifle were imaged bilaterally. Scans were completed using a published protocol. T2-weighted image sequences without (T2w) and with fat saturation (T2fs) were acquired using a variable-flip-angle turbo spin echo (TSE) sequence. The time between the excitation pulse and the center of k-space was 400 ms. Importantly, the contrast was not determined only by the TE (400 ms), but also by the flip angle evolution scheme. Although a traditional TSE sequence would have very little signal at 400 ms, the variable flip angle sequence is similar in principle to hyper-echo. The hyper-echo reduces the specific absorption rate (SAR), while the variable flip angle sequence allows long TE times. A multi-spin-echo T2 (MSE-T2), using a 10-echo Carr-Purcell-Meiboom-Gill sequence, was acquired to calculate the T2 value map. Analysis of the images was completed in three modules: muscle segmentation, pre-processing, and biomarker analysis. As a prerequisite, we first segmented the major proximal pelvic limb muscles in the MRI images. All proximal pelvic limb muscles were segmented but only five slices at the midfemur were analyzed and averaged.
# For the sake of this study, the biomarker analysis was limited to muscle volumes, T2 mapping values, and several texture analysis features, including a first-order intensity histogram texture feature (entropy) and two high order run length matrix features (short run emphasis (SRE) and run length non-uniformity (RLN)). These texture analysis features were assessed as potential markers of patchy lesions such as necrosis. Based on the mathematical model, we refer to short run emphasis as the Small Lesion Index (SLI) and non-uniformity as the Heterogeneity Index (HI). Both SLI and HI use the run-length matrix method. Compared to histogram-based biomarkers that use intensity data only, the run-length matrix method also takes into account the spatial distribution and intensity of the voxels. A gray-level ‘run’ is defined as a set of consecutive voxels of similar intensity level in a given direction within a predefined similarity range. This is run in a three-dimensional matrix and is intended to detect lumps of hyper-intensity in MRI. To determine overall muscle scores for T2 and the texture features in each group, the proportional muscle volume was considered, so as to calculate a weighted average.
# wild type and GRMD dogs = conditions: dog, in vivo
# Method: NBD peptide (TALDWSWLQTE) fused to an Antennapedia protein transduction domain [9] was generated using an ABI 430A solid-phase peptide synthesizer (Applied Biosystems, Foster City, CA, USA) as previously described. NBD solutions (10 mg/mL) for the canine studies were prepared weekly. Needed volumes were calculated based on the current dog body weights, plus estimated weekly gain averages. Compound was weighed on a laboratory balance to the nearest 0.1 g and reconstituted in sterile water. Solution was then sterile-filtered through 0.22 μm filters into a sterile fluid administration bag and refrigerated at 4°C until use. […] Heart and respiratory rate, mucous membrane color, capillary refill time, and body temperature were monitored throughout the perfusion. […] The syringe pump was initially programed to administer the calculated volume over 10 min, but this was extended to 30 min when reactions were seen. Blood pressure was recorded prior to start of perfusion, at 5-min intervals throughout perfusion, and post-perfusion (Cardell® 9405 Multiparameter Monitor, Midmark Corporation, Versailles, OH, USA). Dogs were monitored for adverse reactions throughout the perfusion and for up to 30 min after completion.
# [3] = NBD group, age 2 months (start of treatment)
# [4] = age 6 months, NBD 10 mg/kg IV 3x weekly for 4 months
sequence,measurement,setting,value
"TALDWSWLQTE [NBD, NBD peptide (…) fused to an Antennapedia protein transduction domain]",Hip (Resting) angle,GRMD dogs [1]; [3],103.7 ± 2.94
same,Maximum Hip Flexion,GRMD dogs [1]; [3],44.67 ± 5.47 °
same,Pelvic Angle,GRMD dogs [1]; [3],41.00 ± 6.81 °
same,TTJ Angle,GRMD dogs [1]; [3],157.00 ± 9.80 °
same,Hip (Resting) angle,GRMD dogs [1]; [4],100.2 ± 6.01^2
same,Maximum Hip Flexion,GRMD dogs [1]; [4],46.33 ± 3.50^2 °
same,Pelvic Angle,GRMD dogs [1]; [4],36.83 ± 5.12^2 °
same,TTJ Angle,GRMD dogs [1]; [4],160.17 ± 8.84 °
same,"MRI HI (Heterogeneity Index, run length non-uniformity)",GRMD dogs [2]; Adductor,116.2 ± 22.37
same,"MRI SLI (Small Lesion Index, short run emphasis)",GRMD dogs [2]; Adductor,0.72 ± 0.02
same,MRI T2 mapping value,GRMD dogs [2]; Adductor,39.52 ± 4.76
same,"MRI HI (Heterogeneity Index, run length non-uniformity)",GRMD dogs [2]; All muscles (weighted average),86.01 ± 18.28
same,"MRI SLI (Small Lesion Index, short run emphasis)",GRMD dogs [2]; All muscles (weighted average),0.70 ± 0.04^^
same,MRI T2 mapping value,GRMD dogs [2]; All muscles (weighted average),47.34 ± 3.10^^
same,"MRI HI (Heterogeneity Index, run length non-uniformity)",GRMD dogs [2]; Biceps Femoris,87.50 ± 48.42
same,"MRI SLI (Small Lesion Index, short run emphasis)",GRMD dogs [2]; Biceps Femoris,0.68 ± 0.06^^
same,MRI T2 mapping value,GRMD dogs [2]; Biceps Femoris,40.20 ± 4.91^^
same,"MRI HI (Heterogeneity Index, run length non-uniformity)",GRMD dogs [2]; Caudal Sartorius,35.21 ± 14.92
same,"MRI SLI (Small Lesion Index, short run emphasis)",GRMD dogs [2]; Caudal Sartorius,0.83 ± 0.05
same,MRI T2 mapping value,GRMD dogs [2]; Caudal Sartorius,53.87 ± 9.88
same,"MRI SLI (Small Lesion Index, short run emphasis)",GRMD dogs [2]; Cranial Sartorius,0.79 ± 0.05
same,MRI T2 mapping value,GRMD dogs [2]; Cranial Sartorius,49.40 ± 9.01
same,"MRI HI (Heterogeneity Index, run length non-uniformity)",GRMD dogs [2]; Gracilis,58.90 ± 30.66
same,"MRI SLI (Small Lesion Index, short run emphasis)",GRMD dogs [2]; Gracilis,0.70 ± 0.06^^
same,MRI T2 mapping value,GRMD dogs [2]; Gracilis,45.91 ± 3.50
same,"MRI HI (Heterogeneity Index, run length non-uniformity)",GRMD dogs [2]; Rectus Femoris,55.42 ± 21.95
same,"MRI SLI (Small Lesion Index, short run emphasis)",GRMD dogs [2]; Rectus Femoris,0.68 ± 0.07^^
same,MRI T2 mapping value,GRMD dogs [2]; Rectus Femoris,37.23 ± 4.72
same,"MRI HI (Heterogeneity Index, run length non-uniformity)",GRMD dogs [2]; Semimembranosus,78.15 ± 33.31
same,"MRI SLI (Small Lesion Index, short run emphasis)",GRMD dogs [2]; Semimembranosus,0.68 ± 0.06
same,MRI T2 mapping value,GRMD dogs [2]; Semimembranosus,39.42 ± 4.86
same,"MRI HI (Heterogeneity Index, run length non-uniformity)",GRMD dogs [2]; Semitendinosus,81.43 ± 35.00
same,"MRI SLI (Small Lesion Index, short run emphasis)",GRMD dogs [2]; Semitendinosus,0.67 ± 0.08^^
same,MRI T2 mapping value,GRMD dogs [2]; Semitendinosus,40.41 ± 4.97^^
same,"MRI HI (Heterogeneity Index, run length non-uniformity)",GRMD dogs [2]; Vastus Intermedius,59.10 ± 27.19
same,"MRI SLI (Small Lesion Index, short run emphasis)",GRMD dogs [2]; Vastus Intermedius,0.68 ± 0.09
same,MRI T2 mapping value,GRMD dogs [2]; Vastus Intermedius,41.91 ± 5.91^^
same,"MRI HI (Heterogeneity Index, run length non-uniformity)",GRMD dogs [2]; Vastus Lateralis,52.92 ± 27.20
same,"MRI SLI (Small Lesion Index, short run emphasis)",GRMD dogs [2]; Vastus Lateralis,0.68 ± 0.04^^
same,MRI T2 mapping value,GRMD dogs [2]; Vastus Lateralis,40.67 ± 5.84^^
same,"MRI HI (Heterogeneity Index, run length non-uniformity)",GRMD dogs [2]; Vastus Medialis,52.55 ± 22.29
same,"MRI SLI (Small Lesion Index, short run emphasis)",GRMD dogs [2]; Vastus Medialis,0.77 ± 0.09
same,MRI T2 mapping value,GRMD dogs [2]; Vastus Medialis,42.74 ± 5.65
same,Blood pressure during administration,wild type and GRMD dogs,decreased
same,Onset of infusion reactions (time of treatment),"wild type and GRMD dogs; iv, 10 mg/kg",approximately 1 month
